Values quoted from earlier work, collected in US5993851A, “Method for preparing biphasic multilamellar lipid vesicles” (PharmaDerm Laboratories, Ltd., priority 1998, dated 1999).

Tested on: genital warts

interferon alpha
Clinical outcome in words (in vivo): fairly successful
side effects (systemic application (i.m. injection), genital warts): fever, myalgias, headache, nausea, fatigue
